Measured values from US11976083B2, “Inhibitors of peptidylarginine deiminases” (Gilead Sciences, Inc., priority 2020, dated 2024).

Molecular target: T1, human PAD4 (Homo sapiens, UniProt Q9UM07)
T1 construct: human PAD4 (NM_012387), A2-P663, was PCR amplified; His-SUMO (N, cleaved yes); made in house; host or cells: E. coli BL21(DE3)
Experiment: In vitro PAD4 BAEE biochemical assay
Details: BAEE substrate 3 mM, 5 nM PAD4, 2 mM calcium chloride; geometric mean of multiple experiments
Summary of the method: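 Recombinant PAD4 (5 nM final) with 2 mM CaCl2 was preincubated with compound for 30 min at 25 °C in MOPS pH 7.6 buffer with DTT, then reacted with 3 mM BAEE for 2 h at 25 °C. Released ammonia was detected fluorimetrically with o-phthalaldehyde/DTT; IC50 from four-parameter fit, geometric mean of experiments.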

T1 sequence (Q9UM07 2-663): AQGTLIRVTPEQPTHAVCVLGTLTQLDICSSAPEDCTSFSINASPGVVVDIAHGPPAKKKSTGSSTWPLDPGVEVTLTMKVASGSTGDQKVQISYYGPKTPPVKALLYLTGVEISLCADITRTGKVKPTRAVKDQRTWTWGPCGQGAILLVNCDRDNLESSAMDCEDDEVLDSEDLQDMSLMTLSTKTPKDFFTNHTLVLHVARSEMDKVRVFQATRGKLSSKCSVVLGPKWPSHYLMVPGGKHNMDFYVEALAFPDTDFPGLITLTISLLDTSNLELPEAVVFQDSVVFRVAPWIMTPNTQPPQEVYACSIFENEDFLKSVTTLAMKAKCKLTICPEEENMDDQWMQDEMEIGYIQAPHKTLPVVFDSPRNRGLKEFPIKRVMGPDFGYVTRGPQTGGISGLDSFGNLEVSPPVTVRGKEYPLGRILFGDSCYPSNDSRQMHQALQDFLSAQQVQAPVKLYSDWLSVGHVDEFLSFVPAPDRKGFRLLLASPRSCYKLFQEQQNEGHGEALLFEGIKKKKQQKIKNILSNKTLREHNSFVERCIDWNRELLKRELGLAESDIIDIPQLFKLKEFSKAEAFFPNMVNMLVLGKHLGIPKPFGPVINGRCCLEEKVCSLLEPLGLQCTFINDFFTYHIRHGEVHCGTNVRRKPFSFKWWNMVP

| Compound | IC50 [nM] |
| --- | --- |
| COc1cc(C(=O)N2CC[C@@H](OC)[C@@H](N)C2)cc2nc(-c3cc4ccc5nc4n3CC(F)(F)CCCCC3(CCC3)C(=O)N[C@@H]5C)n(C)c12 [Example 614, (11~{R})-17-[5-[(3~{S},4~ {R})-3-amino-4-methoxy-piperidine-1-carbonyl]-7-methoxy-1-methyl-benzimidazol-2-yl]-3,3-difluoro-11-methyl-spiro[1,10,19-triazatricyclo[10.5.2.0^ {15,18}]nonadeca-12,14,16,18-tetraene-8,1′-cyclobutane]-9-one] | 114 |
| COc1cc(C(=O)N[C@H]2CNCC[C@@H]2F)cc2nc(-c3cc4ccc5nc4n3CCCCCC[C@H](OC)C(=O)N[C@@H]5C)n(C)c12 [Example 615, ˜{N}-[(3˜{S},4˜{S})-4-fluoro-3-piperidyl]-7-methoxy-2-[(8˜{S},11˜{R})-8-methoxy-11-methyl-9-oxo-1,10,19-triazatricyclo[10.5.2.0^{15,18}]nonadeca-12(19),13,15(18),16-tetraen-17-yl]-1-methyl-benzimidazole-5-carboxamide] | 94 |
| COc1cc(C(=O)N[C@H]2CNCC[C@@H]2F)cc2nc(-c3cc4ccc5nc4n3CCCOC[C@@H]3C[C@H]3C(=O)N[C@@H]5C)n(C)c12 [Example 616, ~{N}-[(3~{S},4~{S})-4-fluoro-3-piperidyl]-7-methoxy-1-methyl-2-[(2~{R},5~{R},7~{R})-2-methyl-4-oxo-9-oxa-3,13,19-triazatetracyclo[11.5.2.0^ {5,7}.0^{16,20}]icosa-1(19),14,16(20), 17-tetraen-14-yl] benzimidazole-5-carboxamide] | 71 |
| COc1cc(C(=O)N[C@H]2CNCC[C@@H]2F)cc2nc(-c3cc4ccc5nc4n3CCCCC[C@@]3(C)C[C@@H]3C(=O)N[C@@H]5C)n(C)c12 [Example 617, 2-[(2~{R},5~{S},7~{S})-2,7-dimethyl-4-oxo-3,13,19-triazatetracyclo[11.5.2.0^ {5,7}.0^{16,20}]icosa-1(19),14,16(20),17-tetraen-14-yl]-~{N}-[(3~ {S},4~{S})-4-fluoro-3-piperidyl]-7-methoxy-1-methyl-benzimidazole-5-carboxamide] | 1120 |
| COc1cc(C(=O)N[C@H]2CNCC[C@@H]2F)cc2nc(-c3cc4ccc5nc4n3CCCCC[C@]3(C)C[C@H]3C(=O)N[C@@H]5C)n(C)c12 [Example 618, 2-[(2~{R},5~{R},7~{R})-2,7-dimethyl-4-oxo-3,13,19-triazatetracyclo[11.5.2.0^ {5,7}.0^{16,20}]icosa-1(19),14,16(20), 17-tetraen-14-yl]- ~{N}-[(3~{S},4~{S})-4-fluoro-3-piperidyl]-7-methoxy-1-methyl-benzimidazole-5-carboxamide] | 69 |
| COc1cc(C(=O)N[C@H]2CNCC[C@@H]2F)cc2nc(-c3cc4ccc5nc4n3C/C=C(/F)COCCC(=O)N[C@@H]5C)n(C)c12 [Example 619, 2-[(3~{E},11~{R})-4-fluoro-11-methyl-9-oxo-6-oxa-1,10,19-triazatricyclo[10.5.2.0^ {15,18}]nonadeca-3,12(19),13,15(18), 16-pentaen-17-yl]- ~{N}-[(3~{S},4~{S})-4-fluoro-3-piperidyl]-7-methoxy-1-methyl-benzimidazole-5-carboxamide] | 38 |
| COc1cc(C(=O)N2CCC[C@@H](N)C2)cc2nc(-c3cc4ccc5nc4n3C/C=C(/F)COCCC(=O)N[C@@H]5C)n(C)c12 [Example 620, (3~{E},11~{R})-17-[5-[(3~{R})-3-aminopiperidine-1-carbonyl]-7-methoxy-1-methyl-benzimidazol-2-yl]-4-fluoro-11-methyl-6-oxa-1,10,19-triazatricyclo[10.5.2.0^ {15,18}]nonadeca-3,12(19),13,15(18), 16-pentaen-9-one] | 36 |
| COc1cc(C(=O)N[C@H]2CNCC[C@@H]2F)cc2nc(-c3cc4ccc5nc4n3CCCCCC[C@@H](OC)C(=O)N[C@@H]5C)n(C)c12 [Example 621, ~{N}-[(3~{S},4~{S})-4-fluoro-3-piperidyl]-7-methoxy-2-[(8~{R},11~ {R})-8-methoxy-11-methyl-9-oxo-1,10,19-triazatricyclo[10.5.2.0^ {15,18}]nonadeca-12(19),13,15(18),16-tetraen-17-yl]-1-methyl-benzimidazole-5-carboxamide] | 43 |
| C[C@H]1NC(=O)CCOC[C@@H]2C[C@@H]2Cn2c(-c3nc4cc(C(=O)N[C@H]5CNCC[C@@H]5F)c(F)cc4n3C3CC3)cc3ccc1nc32 [Example 622, 1-cyclopropyl-6-fluoro-~ {N}-[(3~{S},4~{S})-4-fluoro-3-piperidyl]-2-[(3~{S},5~{R},12~{R})-12-methyl-10-oxo-7-oxa-1,11,20-triazatetracyclo[11.5.2.0^ {3,5}.0^{16,19}]icosa-13(20),14,16(19), 17-tetraen-18-yl] benzimidazole-5-carboxamide] | 59 |
| CO[C@@H]1CCCCC(F)(F)Cn2c(-c3nc4cc(C(=O)N[C@H]5CNCC[C@@H]5F)c(F)cc4n3C)cc3ccc(nc32)[C@@H](C)NC1=O [Example 623, 2-[(8~{R},11~{R})-3,3-difluoro-8-methoxy-11-methyl-9-oxo-1,10,19-triazatricyclo[10.5.2.0^ {15,18}]nonadeca-12(19),13,15(18),16-tetraen-17-yl]-6-fluoro-~{N}-[(3~{S}, 4~{S})-4-fluoro-3-piperidyl]-1-methyl-benzimidazole-5-carboxamide] | 47 |
| C[C@H]1NC(=O)[C@H]2C[C@@H]2CC(F)(F)CCCn2c(-c3nc4cc(C(=O)N[C@H]5CNCC[C@@H]5F)c(F)cc4n3C)cc3ccc1nc32 [Example 624, 2-[(2~{R},5~{S},7~{R})-9,9-difluoro-2-methyl-4-oxo-3,13,19-triazatetracyclo[11.5.2.0^ {5,7).0^{16,20}]icosa-1(19),14,16(20), 17-tetraen-14-yl]-6-fluoro-~{N}-[(3~{S},4~ {S})-4-fluoro-3-piperidyl]-1-methyl-benzimidazole-5-carboxamide] | 70 |
| C[C@H]1NC(=O)[C@@H]2C[C@H]2CC(F)(F)CCCn2c(-c3nc4cc(C(=O)N[C@H]5CNCC[C@@H]5F)c(F)cc4n3C)cc3ccc1nc32 [Example 625, 2-[(2~{R},5~{R},7~{S})-9,9-difluoro-2-methyl-4-oxo-3,13,19-triazatetracyclo[11.5.2.0^ {5,7}.0^{16,20}]icosa-1(19),14,16(20),17-tetraen-14-yl]-6-fluoro-~ {N}-[(3~{S},4~{S})-4-fluoro-3-piperidyl]-1-methyl-benzimidazole-5-carboxamide] | 9 |
| C[C@H]1NC(=O)C(C)(C)CCCCCCn2c(-c3nc4cc(C(=O)N[C@H]5CNCC[C@@H]5F)c(F)cc4n3C(F)F)cc3ccc1nc32 [Example 626, 1-(difluoromethyl)-6-fluoro-˜{N}-[(3˜{S},4˜{S})-4-fluoro-3-piperidyl]-2-[(11˜{R})-8,8,11-trimethyl-9-oxo-1,10,19-triazatricyclo[10.5.2.0^{15,18}]nonadeca-12(19),13,15(18),16-tetraen-17-yl]benzimidazole-5-carboxamide] | 48 |
| COc1cc(C(=O)N2CCC[C@@H](N)C2)cc2nc(-c3cc4ccc5nc4n3CCCCCc3nccnc3C(=O)N[C@@H]5C)n(C)c12 [Example 627, (2~{R})-17-[5-[(3~{R})-3-aminopiperidine-1-carbonyl]-7-methoxy-1-methyl-benzimidazol-2-yl]-2-methyl-3,6,9,16,22-pentazatetracyclo [14.5.2.0^{5,10}.0^{19,23}] tricosa-1(22),5(10), 6,8,17,19(23),20-heptaen-4-one] | 49 |
| COc1cc(C(=O)N2CC[C@@H](OC)[C@@H](N)C2)cc2nc(-c3cc4ccc5nc4n3CCCCCC[C@@H](OC)C(=O)N[C@@H]5C)n(C)c12 [Example 628, (8~{R},11~{R})-17-[5-[(3~ {S},4~{R})-3-amino-4-methoxy-piperidine-1-carbonyl]-7-methoxy-1-methyl-benzimidazol-2-yl]-8-methoxy-11-methyl-1,10,19-triazatricyclo [10.5.2.0^{15,18}] nonadeca-12(19),13,15(18),16-tetraen-9-one] | 83 |
| COc1cc(C(=O)N2CC[C@@H](OC(F)F)[C@@H](N)C2)cc2nc(-c3cc4ccc5nc4n3CCCCCC[C@@H](OC)C(=O)N[C@@H]5C)n(C)c12 [Example 629, (8~{R},11~{R})-17-[5-[(3~ {S},4~{R})-3-amino-4-(difluoromethoxy)piperidine-1-carbonyl]-7-methoxy-1-methyl-benzimidazol-2-yl]-8-methoxy-11-methyl-1,10,19-triazatricyclo [10.5.2.0^{15,18}]nonadeca-12(19),13,15(18),16-tetraen-9-one] | 108 |
| COc1ccnc2c1C(=O)N[C@H](C)c1ccc3cc(-c4nc5cc(C(=O)N6CC[C@@H](OC)[C@@H](N)C6)cc(OC)c5n4C)n(c3n1)CCCCC2 [Example 630, (2~{R})-17-[5-[(3~{S),4~ {R})-3-amino-4-methoxy-piperidine-1-carbonyl]-7-methoxy-1-methyl-benzimidazol-2-yl]-6-methoxy-2-methyl-3,9,16,22-tetrazatetracyclo[14.5.2.0^ {5,10}.0^{19,23}] tricosa-1(22),5(10), 6,8,17,19(23),20-heptaen-4-one] | 122 |
| COc1cc(C(=O)N2C[C@H](N)C[C@H](C(F)F)C2)cc2nc(-c3cc4ccc5nc4n3CCCCC[C@@H]3C[C@H]3C(=O)N[C@@H]5C)n(C)c12 [Example 631, (2~{R},5~{R},7~{R})-14-[5-[(3~{R},5~{S})-3-amino-5-(difluoromethyl)piperidine-1-carbonyl]-7-methoxy-1-methyl-benzimidazol-2-yl]-2-methyl-3,13,19-triazatetracyclo[11.5.2.0^ {5,7}.0^{16,20}]icosa-1(19),14,16(20),17-tetraen-4-one] | 211 |
